From patent publication US8552006B2, “Modulators of cystic fibrosis transmembrane conductance regulator” (Vertex Pharmaceuticals Incorporated, priority 2007, dated 2013)

Target: T1, ΔF508-CFTR (Homo sapiens, UniProt P13569, DEL508-508)
T1 construct: expressed in transfected cells
Assay: Membrane potential optical assay for potentiators of ΔF508-CFTR (double-addition HTS, FLIPR III)
Type: cell-based
Settings: for Emax: 100% efficacy is the maximum response obtained with 4-methyl-2-(5-phenyl-1H-pyrazol-3-yl)phenol; for EC50: temperature-corrected ΔF508 CFTR NIH 3T3 cells, potentiation with forskolin activation
Excerpt: Membrane Potential Optical Methods for Assaying ΔF508-CFTR Modulation Properties of Compounds
The assay utilizes fluorescent voltage sensing dyes to measure changes in membrane potential using a fluorescent plate reader (e.g., FLIPR III, Molecular Devices, Inc.) as a readout for increase in functional ΔF508-CFTR in NIH 3T3 cells. The driving force for the response is the creation of a chloride ion gradient in conjunction with channel activation by a single liquid addition step after the cells have previously been treated with compounds and subsequently loaded with a voltage sensing dye.
To identify potentiators of ΔF508-CFTR, a double-addition HTS assay format was developed. This HTS assay utilizes fluorescent voltage sensing dyes to measure changes in membrane potential on the FLIPR III as a measurement for increase in gating (conductance) of ΔF508 CFTR in temperature-corrected ΔF508 CFTR NIH 3T3 cells. The driving force for the response is a Cl^− ion gradient in conjunction with channel activation with forskolin in a single liquid addition step using a fluoresecent plate reader such as FLIPR III after the cells have previously been treated with potentiator compounds (or DMSO vehicle control) and subsequently loaded with a redistribution dye.
Bath Solution #1: (in mM) NaCl 160, KCl 4.5, CaCl2 2, MgCl2 1, HEPES 10, pH 7.4 with NaOH.
Chloride-Free Bath Solution: Chloride Salts in Bath Solution #1 are Substituted with Gluconate Salts.
NIH3T3 mouse fibroblasts stably expressing ΔF508-CFTR are used for optical measurements of membrane potential. The cells are maintained at 37° C. in 5% CO2 and 90% humidity in Dulbecco's modified Eagle's medium supplemented with 2 mM glutamine, 10% fetal bovine serum, 1×NEAA, β-ME, 1× pen/strep, and 25 mM HEPES in 175 cm^2 culture flasks. For all optical assays, the cells were seeded at ˜20,000/well in 384-well matrigel-coated plates and cultured for 2 hrs at 37° C. before culturing at 27° C. for 24 hrs. for the potentiator assay. For the correction assays, the cells are cultured at 27° C. or 37° C. with and without compounds for 16-24 hours. Electrophysiological Assays for assaying ΔF508-CFTR modulation properties of compounds.

T1 sequence (P13569 with tags, fused parts or gaps DEL508-508): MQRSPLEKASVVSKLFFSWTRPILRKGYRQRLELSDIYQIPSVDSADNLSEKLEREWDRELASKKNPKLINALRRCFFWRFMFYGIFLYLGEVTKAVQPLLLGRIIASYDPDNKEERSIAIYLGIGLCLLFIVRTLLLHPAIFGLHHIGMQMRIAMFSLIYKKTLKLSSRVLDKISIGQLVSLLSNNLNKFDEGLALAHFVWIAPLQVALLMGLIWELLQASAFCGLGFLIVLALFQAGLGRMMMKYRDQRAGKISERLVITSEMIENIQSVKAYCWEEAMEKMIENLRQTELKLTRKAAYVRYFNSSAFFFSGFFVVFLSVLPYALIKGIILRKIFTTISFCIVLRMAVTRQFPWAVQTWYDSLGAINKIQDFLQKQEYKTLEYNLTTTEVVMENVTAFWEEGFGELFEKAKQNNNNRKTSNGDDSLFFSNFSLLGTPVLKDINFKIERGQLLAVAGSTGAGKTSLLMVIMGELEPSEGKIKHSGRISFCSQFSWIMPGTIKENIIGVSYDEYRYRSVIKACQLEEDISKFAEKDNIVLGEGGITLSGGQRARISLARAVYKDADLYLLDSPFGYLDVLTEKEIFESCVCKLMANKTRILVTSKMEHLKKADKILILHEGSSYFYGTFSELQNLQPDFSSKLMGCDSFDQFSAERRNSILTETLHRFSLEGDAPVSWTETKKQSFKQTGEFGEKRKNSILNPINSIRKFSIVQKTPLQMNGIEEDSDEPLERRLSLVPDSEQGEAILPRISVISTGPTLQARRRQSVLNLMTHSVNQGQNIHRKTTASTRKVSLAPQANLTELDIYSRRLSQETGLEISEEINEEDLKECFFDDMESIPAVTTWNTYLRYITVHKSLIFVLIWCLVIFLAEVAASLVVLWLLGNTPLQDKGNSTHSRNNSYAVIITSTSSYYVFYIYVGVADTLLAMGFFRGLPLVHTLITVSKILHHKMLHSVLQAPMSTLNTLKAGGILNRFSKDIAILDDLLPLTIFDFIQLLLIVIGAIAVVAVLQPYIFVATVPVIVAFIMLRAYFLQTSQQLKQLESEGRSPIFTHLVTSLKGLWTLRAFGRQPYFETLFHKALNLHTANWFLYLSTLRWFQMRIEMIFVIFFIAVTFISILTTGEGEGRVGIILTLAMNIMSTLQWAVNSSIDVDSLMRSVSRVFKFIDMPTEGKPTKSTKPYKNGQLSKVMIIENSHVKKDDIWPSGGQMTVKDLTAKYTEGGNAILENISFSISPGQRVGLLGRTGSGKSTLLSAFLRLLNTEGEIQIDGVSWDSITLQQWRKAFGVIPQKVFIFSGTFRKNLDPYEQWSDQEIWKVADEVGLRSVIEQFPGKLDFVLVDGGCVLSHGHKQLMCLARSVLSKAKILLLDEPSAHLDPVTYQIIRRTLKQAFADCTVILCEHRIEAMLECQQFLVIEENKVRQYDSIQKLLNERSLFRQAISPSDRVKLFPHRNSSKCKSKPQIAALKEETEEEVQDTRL

## Cc1cc2[nH]cc(C(=O)Nc3cc(O)c(C(C)(C)C)cc3C(C)(C)C)c(=O)n2n1 [Compound 1]
  Emax: 25 to 100%
  EC50: < 5 µM

## CC(C)(C)c1c[nH]c2cc(NC(=O)c3c[nH]c4ccnn4c3=O)ccc12 [Compound 2]
  Emax: > 100%
  EC50: < 5 µM

## Cc1cc2[nH]cc(C(=O)Nc3ccc(N4CCC(C)(C)C4)cc3C(F)(F)F)c(=O)n2c1 [Compound 3]
  Emax: 25 to 100%
  EC50: < 5 µM

## Cc1cc2[nH]cc(C(=O)Nc3cc4[nH]ccc4cc3C(C)(C)C)c(=O)n2n1 [Compound 4]
  Emax: 25 to 100%
  EC50: < 5 µM

## CC(C)(C)c1cc(C(C)(C)C)c(NC(=O)c2c[nH]c3ccnn3c2=O)cc1O [Compound 5, N-(2,4-di-tert-butyl-5-hydroxyphenyl)-7-oxo-4,7-dihydropyrazolo[1,5-a]pyrimidine-6-carboxamide]
  Emax: 25 to 100%
  EC50: < 5 µM

## CC(C)(C)c1cc2cc[nH]c2cc1NC(=O)c1c[nH]c2ccnn2c1=O [Compound 6]
  Emax: 25 to 100%
  EC50: < 5 µM

## CCc1cc2[nH]cc(C(=O)Nc3ccc4c(C(F)(F)F)c[nH]c4c3)c(=O)n2c1 [Compound 7]
  Emax: 25 to 100%
  EC50: < 5 µM

## O=C(Nc1cc2[nH]ccc2cc1C(F)(F)F)c1c[nH]c2ccnn2c1=O [Compound 8]
  Emax: 25 to 100%
  EC50: 5 to 20 µM

## CCc1cc2[nH]cc(C(=O)Nc3ccc4c(C(C)(C)C)c[nH]c4c3)c(=O)n2c1 [Compound 9]
  Emax: 25 to 100%
  EC50: < 5 µM

## Cc1cc2[nH]cc(C(=O)Nc3ccc4cc[nH]c4c3)c(=O)n2n1 [Compound 10]
  Emax: 25 to 100%
  EC50: > 20 µM

## CCc1cc2[nH]cc(C(=O)Nc3cc4[nH]ccc4cc3C(F)(F)F)c(=O)n2c1 [Compound 11]
  Emax: 25 to 100%
  EC50: < 5 µM

## CCc1cc2[nH]cc(C(=O)Nc3cc(O)c(C4(C)CCCCC4)cc3F)c(=O)n2c1 [Compound 12]
  Emax: 25 to 100%
  EC50: 5 to 20 µM

## O=C(Nc1ccc(N2CCCC2)cc1C(F)(F)F)c1c[nH]c2ccnn2c1=O [Compound 13]
  Emax: 25 to 100%
  EC50: 5 to 20 µM

## CCc1cc2[nH]cc(C(=O)Nc3cc(O)c(C(C)(C)C)cc3C(C)(C)C)c(=O)n2c1 [Compound 14, N-(2,4-di-tert-butyl-5-hydroxyphenyl)-7-ethyl-4-oxo-1,4-dihydropyrrolo[1,2-a]pyrimidine-3-carboxamide]
  Emax: 25 to 100%
  EC50: < 5 µM

## Cc1cc2[nH]cc(C(=O)Nc3cc(O)c(C4(C)CCCCC4)cc3F)c(=O)n2c1 [Compound 15]
  Emax: 25 to 100%
  EC50: < 5 µM

## Cc1cc2[nH]cc(C(=O)Nc3cc(O)c(C4CCCC4)cc3C(F)(F)F)c(=O)n2c1 [Compound 16]
  Emax: 25 to 100%
  EC50: < 5 µM

## Cc1cc2[nH]cc(C(=O)Nc3ccc4c(C(F)(F)F)c[nH]c4c3)c(=O)n2c1 [Compound 17]
  Emax: 25 to 100%
  EC50: < 5 µM

## Cc1cc2[nH]cc(C(=O)Nc3cc(O)c(C4CCCC4)cc3C)c(=O)n2c1 [Compound 18]
  Emax: 25 to 100%
  EC50: < 5 µM

## Cc1cc2[nH]cc(C(=O)Nc3cc(O)c(C4CCCC4)cc3C#N)c(=O)n2c1 [Compound 19]
  Emax: 25 to 100%
  EC50: < 5 µM
